According to US20230321171A1, “ANTI-COCCIDIAL COMPOSITION COMPRISING MANGOSTEEN AND USES THEREOF” (CJ CHEILJEDANG CORPORATION, priority 2020, published 2023):

Key:
[1] = test system: Eimeria tenella; test: Protozoan (sporozoite) direct killing ability, Eimeria tenella; format: cell-based; settings: Table 15, method similar to Example 2-1
[2] = test system: RAW264.7(Mouse macrophage cell); test: Cytotoxicity, MTS analysis, RAW264.7; settings: 3.1~500 ppm/well, 14 hours + 2 hours MTS, vs 5% DMSO treatment group
Description: (§1) In the present example, using MTS analysis method (3-(4,5-[…])-5-(3-carboxymethoxyphenyl)-2-(4-sulfophenyl)-2H-tetrazolium, promega, USA), an effect on survival of cells of the mangosteen extract was investigated.
(§2) The cell lines utilized in cytotoxicity evaluation were (1) MDBK(Madin-Darby Bovine Kidney Epithelial Cells) and (2) RAW264.7(Mouse macrophage cell), and all of them were purchased from ATCC and used.
(§3) Each cell was aliquoted at a concentration of 1×10^5 cell/well in a 96-well cell culture plate, and cultured at 37° C. for 24 hours, and then each material (mangosteen extract, xanthone, alpha-mangostin and epicatechin) was treated by concentration (3.1˜500 ppm/well) and cultured at a temperature of 37° C.

[3] = test system: MDBK(Madin-Darby Bovine Kidney Epithelial Cells); test: Cytotoxicity, MTS analysis, MDBK; settings: 3.1~500 ppm/well, 14 hours + 2 hours MTS, vs 5% DMSO treatment group
Description: as §1, §2, §3

[4] = test system: Eimeria tenella; test: Protozoan (sporozoite) direct killing ability, Eimeria tenella; format: cell-based; settings: for Eimeria tenella protozoal death rate: Table 12 comparison with individual components; for Eimeria tenella protozoal death rate (%): compared to PBS-treated negative control group; for Minimum concentration for killing 100% protozoa (ppm), Eimeria tenella: tested 1 to 500 ppm
Protocol: (§4) In the present example, protozoan (sporozoite) direct killing ability evaluation was conducted against 3 representative Eimeria kinds known to be infected in most farms (E. tenella, E. acervulina, E. maxima).
(§5) A certain amount of oocysts of each protozoan was put in a tube containing glass beads and pulverized, and then to remove the crushed oocyst cell wall and other debris, internal sporocysts were purified using the percoll density gradient, and washed with PBS solution. A reagent comprising sodium taurocholic acid (Sigma aldrich, USA) and trypsin (Gibco, USA), respectively, was treated to sporocysts of Eimeria tenella, Eimeria acervulina and Eimeria maxima for excystation and they were incubated, and then they were washed with PBS solution once and protozoa were obtained.
(§6) After reacting the mangosteen pericarp extract, epicatechin, alpha-mangostin, xanthone and anticoccidial agents, salinomycin and diclazuril (hereinafter, material) with 3 kinds of Eimeria protozoa at various concentrations of 1 to 500 ppm, respectively, only alive protozoa (sporozoites) were counted through microscopic observation. Then, the death rate (%) of the protozoa when each material was treated compared to the PBS-treated negative control group was calculated and shown in Table 8 to Table 10 and Table 12, respectively, and the minimum concentration which directly killed the protozoa by 100% was shown in Table 11 below.

[5] = test system: Eimeria maxima; test: Protozoan (sporozoite) direct killing ability, Eimeria maxima; format: cell-based; settings: for Eimeria maxima protozoal death rate (%): compared to PBS-treated negative control group; for Minimum concentration for killing 100% protozoa (ppm), Eimeria maxima: tested 1 to 500 ppm
Protocol: as §4, §5, §6

[6] = test system: Eimeria acervulina; test: Protozoan (sporozoite) direct killing ability, Eimeria acervulina; format: cell-based; settings: for Eimeria acervulina protozoal death rate (%): compared to PBS-treated negative control group; for Minimum concentration for killing 100% protozoa (ppm), Eimeria acervulina: tested 1 to 500 ppm
Protocol: as §4, §5, §6

[7] = test system: Eimeria tenella; test: In vivo anticoccidial efficacy evaluation in broilers challenge-inoculated with Eimeria tenella; set-up: species or system Ross broilers
Protocol: An in vivo anticoccidial efficacy evaluation test was performed in an animal experiment facility in Gyeongsangnam-do, South Korea. One-day-old female Ross broilers were individually weighed and randomly divided into groups to use in an experiment. Matters and conditions for experimental design were described in Table 2.
(§7) A breeding farm was managed according to the Korean poultry breeding management guidelines. Cages and the breeding farm were cleaned and disinfected before starting the test. The temperature of […] and the humidity of 40 to 50% of the breeding farm were maintained, and it was continuously monitored.
(§8) For the feed, Korea Feed Al-choi product was used, and each material (salinomycin (Cheil Bio Cheilsalino-60 product), xanthone (Sigma Aldrich X600 product), and the mangosteen extract prepared in Example 1-2 above) was added to the feed, respectively, at a concentration described in Table 3 below to be self-mixed. Antibiotics and supplements were not used in general feed and mixed feed, and no anticoccidial agent other than each material was added. Broilers were fed ad libitum throughout the experiment period. After putting 20 1-day-age broilers in cages randomly placed for each of the control group or test group and breeding, general feed was fed for 7 days, and then the mixed feed prepared above was ingested by dividing by control group or test group.
The feed formulation administered to the control group (negative control group or positive control group) and test group and whether coccidiosis was induced by Eimeria tenella were described in Table 3 below. 20 1-day-old broilers were put in a cage randomly arranged for each test group, and after 7 days of feeding the general feed, the formulated feed as described in Table 3 was divided into each test group and ingested.
14-day-old broilers were orally inoculated with 10,000 oocysts (90% sporulated Eimeria tenella oocysts) per individual to induce coccidiosis.
The anticoccidial efficacy by test group designed in Example 1-3 above was shown as an anticoccidial index (ACI), and the anticoccidial index was calculated by Equation 2 below. The ACI score is out of 200 points, and the higher the ACI score, the more excellent the anticoccidial ability, and when it is 120 points or more to less than 140 points, it is determined that it is effective as an anticoccidial material, and when it is 140 points or more to less than 160 points, it is determined that it is excellent as an anticoccidial material, and when it is 160 points or more, it is determined that the anticoccidial effect is very excellent. (Luis Miguel De Pablos et al., Anticoccidial activity of maslinic acid against infection with Eimeria tenella in chickens, Parasitol Res, 2010)
Anticoccidial index (ACI)=(survival rate after challenge inoculation (%))+(daily weight gain compared to negative control group (RWG, %))−(lesion score×10)−(fecal oocyst excretion amount index) (Equation 2)
1) Survival rate: the number of dead individuals was recorded daily, and post mortem autopsy was performed to determine a cause of mortality, and the number of individuals who died due to causes other than coccidiosis was excluded. The survival rate (%) up to the 8th day after challenge inoculation was used for anticoccidial index calculation.
2) Daily weight gain: body weight was measured for each cage before challenge inoculation with a protozoan into an individual and at the 7th day after challenge inoculation, and the difference was divided by the number of days to calculate the daily weight gain (ADG, g/d). ‘Daily weight gain compared to the negative control group (RWG, %)’which was calculated by dividing the daily weight gain (ADG, average daily gain; g/d) of each experimental group by the weight gain (ADG, g/d) of the non-infected negative control group and multiplying by 100 was used for anticoccidial index calculation. […]

[8] = Broiler growth effect (daily weight gain) due to intake in feed; format: in vivo, Ross broilers; settings: formulated feed 60 ppm for 7 days
Protocol: An efficacy evaluation test was performed in an animal experiment facility in Gyeongsangnam-do, South Korea. One-day-old female Ross broilers were individually weighed and randomly divided into groups to use in an experiment. Matters and conditions for experimental design were described in Table 16.
as §7
as §8, with “A1-choi” for “Al-choi”, “17” for “3”, “group. The feed formulation administered to the control group (negative control group or positive control group) and test group was described in Table 17 below.” for “group.”
The body weight before feeding and on the 7th day after feeding the feed of Table 16 above into individuals was measured, and the difference was divided by the number of days to calculate the daily weight gain (ADG, g/d), and the result was shown in Table 18. For comparison between 6 treatment groups, Duncan post-test multiple comparison method was used, and statistical significance was verified using a SAS statistical program, and the result was shown in Table 18.

COc1c(O)cc2oc3cc(O)c(CC=C(C)C)c(O)c3c(=O)c2c1CC=C(C)C [Alpha-mangostin, alpha-mangostin]
Minimum concentrataion of killing protozoa 100% (ppm) [1]: ≥31.3 ppm
Minimum concentrataion of cytotoxicity at which cells of 50% or more survive (ppm) [2]: ≥15.6 ppm
Minimum concentrataion of cytotoxicity at which cells of 50% or more survive (ppm) [3]: ≥7.8 ppm
Eimeria tenella protozoal death rate ([4]; 3.9 ppm): 23.3%
Eimeria tenella protozoal death rate ([4]; 7.8 ppm): 50%
Eimeria tenella protozoal death rate ([4]; 15.6 ppm): 93.3%

N#CC(c1ccc(Cl)cc1)c1c(Cl)cc(-n2ncc(=O)[nH]c2=O)cc1Cl (centres unmarked) [Diclazuril, diclazuril]
Eimeria maxima protozoal death rate (%) ([5]; 1 ppm): 0%
Eimeria maxima protozoal death rate (%) ([5]; 5 ppm): 0%
Eimeria maxima protozoal death rate (%) ([5]; 10 ppm): 0%
Eimeria maxima protozoal death rate (%) ([5]; 50 ppm): 0%
Eimeria maxima protozoal death rate (%) ([5]; 100 ppm): 0%
Eimeria maxima protozoal death rate (%) ([5]; 125 ppm): 0%
Eimeria maxima protozoal death rate (%) ([5]; 250 ppm): 16%
Eimeria maxima protozoal death rate (%) ([5]; 500 ppm): 30%
Minimum concentration for killing 100% protozoa (ppm), Eimeria maxima [5]: >500 ppm
Eimeria tenella protozoal death rate (%) ([4]; 1 ppm): 0%
Eimeria tenella protozoal death rate (%) ([4]; 5 ppm): 0%
Eimeria tenella protozoal death rate (%) ([4]; 10 ppm): 0%
Eimeria tenella protozoal death rate (%) ([4]; 50 ppm): 0%
Eimeria tenella protozoal death rate (%) ([4]; 100 ppm): 0%
Eimeria tenella protozoal death rate (%) ([4]; 125 ppm): 0%
Eimeria tenella protozoal death rate (%) ([4]; 250 ppm): 35%
Eimeria tenella protozoal death rate (%) ([4]; 500 ppm): 44%
Minimum concentration for killing 100% protozoa (ppm), Eimeria tenella [4]: >500 ppm
Eimeria acervulina protozoal death rate (%) ([6]; 1 ppm): 0%
Eimeria acervulina protozoal death rate (%) ([6]; 5 ppm): 0%
Eimeria acervulina protozoal death rate (%) ([6]; 10 ppm): 0%
Eimeria acervulina protozoal death rate (%) ([6]; 50 ppm): 0%
Eimeria acervulina protozoal death rate (%) ([6]; 100 ppm): 0%
Eimeria acervulina protozoal death rate (%) ([6]; 125 ppm): 23%
Eimeria acervulina protozoal death rate (%) ([6]; 250 ppm): 12%
Eimeria acervulina protozoal death rate (%) ([6]; 500 ppm): 44%
Minimum concentration for killing 100% protozoa (ppm), Eimeria acervulina [6]: 500 ppm

Oc1cc(O)c2c(c1)O[C@H](c1ccc(O)c(O)c1)[C@H](O)C2 [Epicatechin, epicatechin]
Minimum concentrataion of killing protozoa 100% (ppm) [1]: ≥500 ppm
Eimeria tenella protozoal death rate ([4]; 3.9 ppm): 0%
Eimeria tenella protozoal death rate ([4]; 7.8 ppm): 0%
Eimeria tenella protozoal death rate ([4]; 15.6 ppm): 0%

CC[C@@H](C(=O)[C@@H](C)[C@@H](O)[C@H](C)[C@@H]1O[C@@H]([C@@H](CC)C(=O)O)CC[C@@H]1C)[C@H]1O[C@]2(C=C[C@@H](O)[C@]3(CC[C@@](C)([C@H]4CC[C@](O)(CC)[C@H](C)O4)O3)O2)[C@H](C)C[C@@H]1C [Salinomycin, salinomycin]
Intermediate body weight (14-day-old, before challenge inoculation) ([7]; formulated feed 60 ppm from day 7, female Ross broilers): 455.9
Appendix lesion score ([7]; formulated feed 60 ppm, 8th day after challenge inoculation, scale of 0-4): 2.7
End body weight (21-day-old, on the 7th day of challenge inoculation) ([7]; formulated feed 60 ppm, 10,000 E. tenella oocysts oral at 14 days): 917.6
Day 14~Day 21 ADG (daily weight gain) ([7]; formulated feed 60 ppm, E. tenella infected broilers): 62.46 g/day
Anticoccidial index (ACI) ([7]; formulated feed 60 ppm, Equation 2, out of 200 points): 141
Oocyst excretion amount/gram ([7]; formulated feed 60 ppm, feces of 6~8th day of challenge inoculation, McMaster chamber): 1.30E+08 /gram
RWG (daily weight gain compared to the negative control group) ([7]; formulated feed 60 ppm, relative to non-infected negative control group): 94%
Eimeria maxima protozoal death rate (%) ([5]; 1 ppm): 0%
Eimeria maxima protozoal death rate (%) ([5]; 5 ppm): 0%
Eimeria maxima protozoal death rate (%) ([5]; 10 ppm): 0%
Eimeria maxima protozoal death rate (%) ([5]; 50 ppm): 0%
Eimeria maxima protozoal death rate (%) ([5]; 100 ppm): 59%
Eimeria maxima protozoal death rate (%) ([5]; 125 ppm): 65%
Eimeria maxima protozoal death rate (%) ([5]; 250 ppm): 97%
Eimeria maxima protozoal death rate (%) ([5]; 500 ppm): 100%
Minimum concentration for killing 100% protozoa (ppm), Eimeria maxima [5]: 500 ppm
Daily weight gain (ADG) [8]: 46.86 g/day
End-initial body weight (7 days, g) [8]: 328 g
End body weight ([8]; non-infected broilers): 526 g
Eimeria tenella protozoal death rate (%) ([4]; 1 ppm): 0%
Eimeria tenella protozoal death rate (%) ([4]; 5 ppm): 0%
Eimeria tenella protozoal death rate (%) ([4]; 10 ppm): 0%
Eimeria tenella protozoal death rate (%) ([4]; 50 ppm): 0%
Eimeria tenella protozoal death rate (%) ([4]; 100 ppm): 46%
Eimeria tenella protozoal death rate (%) ([4]; 125 ppm): 74%
Eimeria tenella protozoal death rate (%) ([4]; 250 ppm): 100%
Eimeria tenella protozoal death rate (%) ([4]; 500 ppm): 100%
Minimum concentration for killing 100% protozoa (ppm), Eimeria tenella [4]: 500 ppm
Eimeria acervulina protozoal death rate (%) ([6]; 1 ppm): 0%
Eimeria acervulina protozoal death rate (%) ([6]; 5 ppm): 0%
Eimeria acervulina protozoal death rate (%) ([6]; 10 ppm): 0%
Eimeria acervulina protozoal death rate (%) ([6]; 50 ppm): 0%
Eimeria acervulina protozoal death rate (%) ([6]; 100 ppm): 60%
Eimeria acervulina protozoal death rate (%) ([6]; 125 ppm): 73%
Eimeria acervulina protozoal death rate (%) ([6]; 250 ppm): 100%
Eimeria acervulina protozoal death rate (%) ([6]; 500 ppm): 100%
Minimum concentration for killing 100% protozoa (ppm), Eimeria acervulina [6]: 250 ppm
